Test results published in US20240424005A1, “DIAGNOSING, MONITORING AND TREATING NEUROLOGICAL DISEASE WITH PS[…] DERIVATIVES AND mRNA MEASUREMENTS” (NOVA MENTIS LIFE SCIENCE CORP., priority 2021, published 2024).
Entries after “also recorded” stand apart in the source; their conditions may differ.

Columns and labels:
red blood cells = assay: Toxicity and oxidative stress in red blood cells
wild-type (WT) animals = assay: Novel object recognition task in wild-type control rats; type: in vivo, rat
Procedure: The experiments were performed in Fmr1-^Δexon 8 rats on a Sprague-Dawley background (Horizon Discovery, formerly SAGE Labs, USA), proposed as a genetic model of ASD and rat model of FXS (Golden et al., 2019; Schiavi et al., 2022); the corresponding wild-type (WT) animals were used as controls.
(§1) We performed three experiments testing Fmr1-^Δexon 8 rats and WT controls in the novel object recognition task using three different treatment schedules for psilocybin administration: • 1. Experiment 1: a single dose of either 1 (Hibicke et al., 2020) or 3 mg/kg psilocybin given intraperitoneally (i.p.) eight days before behavioral testing (FIG. 8A); • 2. Experiment 2: repeated microdoses of psilocybin (0.1 mg/kg) given i.p. three times every other day, with behavioral testing starting five days after the last administration (FIG. 8B); • 3. Experiment 3: repeated microdoses of psilocybin (0.1 or 0.3 mg/kg) (Higgins et al., 2021) given orally (p.o.) three times every other day, for two consecutive weeks, with behavioral testing starting five days after the last administration (FIG. 8C).
We have recently shown that Fmr1-^Δexon 8 rats show impaired novel object recognition memory at adolescence (Schiavi et al., 2022). […] On the training trial, each rat was individually placed into an open-field arena containing two identical objects (A1 and A2), equidistant from each other, and allowed to explore the objects for 5 min. Thirty minutes later, one copy of the familiar object (A3) and a new object (B) were placed in the same location as during the training trial. Each rat was placed in the apparatus for 5 minutes, and the time spent exploring each object was recorded. The discrimination index was calculated as the difference in time exploring the novel and the familiar objects, expressed as the percentage ratio of the total time spent exploring both objects (Schiavi et al., 2022).
Data are expressed as mean±SEM and were analyzed by two-way ANOVA, with genotype (WT or Fmr1-^Δexon 8) and treatment (psilocybin or vehicle) as factors. Tukey's post hoc test was used for individual group comparisons. The accepted value for significance was set at p<0.05. Data were analyzed using GraphPad Prism 8 software.

VPA-exposed rats = assay: Elevated plus-maze test in rats prenatally exposed to valproic acid; type: in vivo, rat; details: offspring of VPA-treated pregnant rats
Procedure: Female Wistar rats (Charles River), weighing 250±15 g, were mated overnight. The morning when spermatozoa were found was designated as gestational day 1 (GD1). Pregnant rats were singly housed in Macrolon cages (401×26w x 20h cm), under controlled conditions (temperature 20-21° C., 55-65% relative humidity and 12/12h light cycle with lights on at 07:00 a.m.). Food and water were available ad libitum. On gestational day 12.5, females received a single intraperitoneal injection of either sodium valproate (VPA) or saline (SAL). […] Newborn litters found up to 5.00 p.m. were considered to be born on that day (Postnatal day (PND) 0). On PND 1, the litters were culled to eight animals (six males and two females). On PND 21, the pups were weaned and housed in groups of three. […]
The apparatus comprised two open and two closed arms (501×10×40 h cm) that extended from a common central platform (101×10 w cm). […] Each session was recorded with a camera positioned above the apparatus for subsequent behavioral analysis performed using the Observer 3.0 software (Noldus Information Technology). The following parameters were analyzed: […]
Data are expressed as mean±SEM. To assess the effects of prenatal VPA exposure and psilocybin on behavioral parameters, data were analyzed by two-way ANOVA, with prenatal treatment and postnatal treatment as factors. […]

[1] = Observation of discomfort/intoxication after repeated oral microdosing; type: in vivo, rat; details: Experiment 3: 0.1 or 0.3 mg/kg p.o. repeated; immediately and days after administration
Procedure: as §1
To increase the translational value of our findings, we finally decided to assess the effects of repeated oral administration of 0.1 and 0.3 mg/kg psilocybin microdoses, for two weeks every other day, in our Fmr1-^Δexon 8 rats. The animals were tested five days after the last treatment, to prevent any hallucinogenic effect of the drug at the time of behavioral performance.

[2] = 0.1 mg/kg, rats; Higgins et al., 2021; cited from earlier work

SMILES: CN(C)CCc1c[nH]c2cccc(O)c12 [psilocin]
- toxicity in red blood cells (red blood cells): non-toxic

SMILES: CN(C)CCc1c[nH]c2cccc(OP(=O)(O)O)c12 [psilocybin]
- cognitive performance of WT animals (% discrimination index) (wild-type (WT) animals; Experiment 1: single dose 1 mg/kg i.p. eight days before testing, WT rats): did not affect the performance of WT animals
- cognitive performance of WT animals (% discrimination index) (wild-type (WT) animals; Experiment 1: single dose 3 mg/kg i.p. eight days before testing, WT rats vs WT vehicle, p<0.001, 3 mg/kg): poorer cognitive performance; also recorded: detrimental effect
- cognitive performance of WT animals (wild-type (WT) animals; Experiment 2: 0.1 mg/kg i.p. three times every other day, WT rats): without affecting the performance of WT animals
- cognitive performance of WT animals (wild-type (WT) animals; Experiment 3: 0.1 or 0.3 mg/kg p.o. repeated for two weeks, WT rats): without affecting the performance of WT animals
- performance in wild-type (WT) control animals (wild-type (WT) animals; repeated microdoses (schedule not given at the place)): without affecting the performance
- safety of treatment in the VPA model (VPA-exposed rats): safe
- signs of discomfort/intoxication in the animals [1]: did not induce any sign of discomfort/intoxication
- side effects on motor activity or stereotypies [2]: devoid of side effects on motor activity or stereotypies
- toxicity in red blood cells (red blood cells): non-toxic
